# In patent US8927565B2, “Compositions for veterinary and medical applications” (priority 2003, dated 2015):
# How the values were obtained:
# V. cholerae 6239 = assay: Antimicrobial activity, Minimum Inhibitory Concentration; assay type: cell-based, Vibrio cholerae; conditions: for Minimum Inhibitory Concentration: V. cholerae 6239
# Strep. Group B MCR1 27 = assay: as above; assay type: cell-based, Streptococcus Group B; conditions: for Minimum Inhibitory Concentration: Strep. Group B MCR1 27
# C. albicans ATCC 14053 = assay: as above; assay type: cell-based, Candida albicans; conditions: for Minimum Inhibitory Concentration: C. albicans ATCC 14053
# L. plantarum = assay: as above; assay type: cell-based, Lactobacillus plantarum; conditions: for Minimum Inhibitory Concentration: L. plantarum
# E. coli HS = assay: as above; assay type: cell-based, Escherichia Coli
# Staph. Aureus ATCC 29213 = assay: as above; assay type: cell-based, Staphylococcus aureus
# piglets = assay: GILAX as feed additive for pig health after weaning; assay type: in vivo; conditions: in-feed amoxicillin at 50 mg/kg/day for 21 days (positive control)
# [1] = system: hFUT1 mouse model of colitis; assay: Treatment of IBD on mouse model; assay type: in vivo; conditions: Group 2: berberine chloride 13.5 mg/kg/day (o.s.)
# Source text: hFUT1 mouse model of colitis was used. It provides insights into the pathogenesis of Inflammatory Bowel Disease (IBD). […] Immune dysfunction contributing to IBD in humans includes abnormal T cell reactivity and a loss of tolerance to gut bacteria. The compositions of Formula (1) and Formula (2) were given orally to mice to see the effectiveness on the altering the gut flora and lessening the severity of the colitis. The positive results indicated the compositions of Formula and Formula (2) may have a therapeutic role in human IBD.
# A total five groups with ten mice per group were used as follows. • 1) Control (without treatment). • 2) Treated with compound of the Formula (1) (berberine chloride), 13.5 mg/kg/day (o.s.). • 3) Treated with compound of the Formula (2) (40% oxidized cellulose), 114 mg/kg/day (o.s.). • 4) Treated with composition of the Formula (1) (berberine chloride) (6.7 mg/kg/day) and the Formula (2) (40% oxidized cellulose) (57 mg/kg/day) (o.s.). • 5) Treated with composition of the Formula (1) (berberine chloride) (13.5 mg/kg/day) and the Formula (2) (114 mg/kg/day) (o.s.).
# IL-8 = assay: Inhibition of IL-8 production
# interleukine-12 (IL-12) = assay: Induction of interleukine-12
# Escherichia Coli = assay: Loss of filaments and of attachment to intestinal wall below the MIC; assay type: cell-based; conditions: berberine at 5 µg/ml, much lower than MIC
# Source text: (§1) This specific property of berberine offers an important aspect as a GI tract cleanser, since it can selectively remove pathogenic bacteria from the gut without affecting the inhabitations of the probiotic bacteria in GI tract, and without exerting excessive drug pressure on the bacteria, which may lead to drug resistance.
# [2] = system: Cl. perfringens ATCC 1124; assay type: cell-based; conditions: Clostridium perfringens
# chickens = assay: Pilot chicken experiment (feed additives, growth and red combs)
# [3] = across the intestinal tissue; reference [13]; cited from earlier work
# Lactobacilli = assay: Effect on probiotic bacteria below the MIC; assay type: cell-based; conditions: berberine at 5 µg/ml
# Source text: as §1
compound,measurement,setting,value
"CC[C@H]1OC(=O)[C@H](C)[C@@H](O[C@H]2C[C@@](C)(OC)[C@@H](O)[C@H](C)O2)[C@H](C)[C@@H](O[C@@H]2O[C@H](C)C[C@H](N(C)C)[C@H]2O)[C@](C)(O)C[C@@H](C)C(=O)[C@H](C)[C@@H](O)[C@]1(C)O [Erythromycin, reference compound]",Minimum Inhibitory Concentration,V. cholerae 6239,>10 µg/mL
same,Minimum Inhibitory Concentration,Strep. Group B MCR1 27,<0.625 µg/mL
same,Minimum Inhibitory Concentration,C. albicans ATCC 14053,>10 µg/mL
same,Minimum Inhibitory Concentration,L. plantarum,<0.625 µg/mL
same,Minimum Inhibitory Concentration,E. coli HS,>10 µg/mL
same,Minimum Inhibitory Concentration,Staph. Aureus ATCC 29213; Staph. Aureus ATCC 29213,<0.625 µg/mL
"CC1(C)S[C@@H]2[C@H](NC(=O)[C@H](N)c3ccc(O)cc3)C(=O)N2[C@H]1C(=O)O [Amoxicillin, amoxicillin]",health of piglets after weaning,piglets,all healthy
same,need of injectable amoxicillin for sick piglets,piglets,no injectable amoxicillin was needed
COc1ccc2cc3[n+](cc2c1OC)CCc1cc2c(cc1-3)OCO2.[Cl-] [berberine chloride],Minimum Inhibitory Concentration,V. cholerae 6239,125 µg/mL
same,inhibition of pathogenic bacteria (in words),V. cholerae 6239; Vibrio cholerae,selectively inhibits
same,Survival rate after 56 days treatment,[1],5/10
same,inhibition of the production of IL-8,IL-8,inhibit the production of IL-8
same,induction of interleukine-12 (IL-12),interleukine-12 (IL-12),could induce
same,Minimum Inhibitory Concentration,Strep. Group B MCR1 27,62.5 µg/mL
same,inhibition of pathogenic bacteria (in words),Strep. Group B MCR1 27; Streptococcus Group B,selectively inhibits
same,Minimum Inhibitory Concentration,C. albicans ATCC 14053,62.5 µg/mL
same,inhibition of pathogenic bacteria (in words),C. albicans ATCC 14053; Candida albicans,selectively inhibits
same,effect on filaments and attachment on the wall of intestine,Escherichia Coli,lost their filaments and were unable to attach on the wall of intestine
same,Minimum Inhibitory Concentration,L. plantarum,500 µg/mL
same,inhibition of beneficial bacteria (probiotics) (in words),"L. plantarum; Lactobacillus plantarum, at <500 µg/ml",does not inhibit
same,inhibition of pathogenic bacteria (in words),[2],selectively inhibits
same,Growth rate compared to that of the control on day 36,chickens; Group A: 50 ppm berberine chloride in feed,106.36% (p = 0.05)
same,Red Combs (Number of red comb/total number of chickens),"chickens; Group A: 50 ppm berberine chloride in feed, Day 14 (start of additive)",0/5
same,Red Combs (Number of red comb/total number of chickens),"chickens; Group A: 50 ppm berberine chloride in feed, Day 17",1/5
same,Red Combs (Number of red comb/total number of chickens),"chickens; Group A: 50 ppm berberine chloride in feed, Day 21",1/5
same,Red Combs (Number of red comb/total number of chickens),"chickens; Group A: 50 ppm berberine chloride in feed, Day 24",3/5
same,Red Combs (Number of red comb/total number of chickens),"chickens; Group A: 50 ppm berberine chloride in feed, Day 26",3/5
same,Red Combs (Number of red comb/total number of chickens),"chickens; Group A: 50 ppm berberine chloride in feed, Day 32",4/5
same,Red Combs (Number of red comb/total number of chickens),"chickens; Group A: 50 ppm berberine chloride in feed, Day 36",4/5
same,Growth rate compared to that of the control on day 36,chickens; Group B: 10 ppm berberine chloride in feed,101.79%
same,Red Combs (Number of red comb/total number of chickens),"chickens; Group B: 10 ppm berberine chloride in feed, Day 14 (start of additive)",0/5
same,Red Combs (Number of red comb/total number of chickens),"chickens; Group B: 10 ppm berberine chloride in feed, Day 17",0/5
same,Red Combs (Number of red comb/total number of chickens),"chickens; Group B: 10 ppm berberine chloride in feed, Day 21",2/5
same,Red Combs (Number of red comb/total number of chickens),"chickens; Group B: 10 ppm berberine chloride in feed, Day 24",2/5
same,Red Combs (Number of red comb/total number of chickens),"chickens; Group B: 10 ppm berberine chloride in feed, Day 26",3/5
same,Red Combs (Number of red comb/total number of chickens),"chickens; Group B: 10 ppm berberine chloride in feed, Day 32",4/5
same,Red Combs (Number of red comb/total number of chickens),"chickens; Group B: 10 ppm berberine chloride in feed, Day 36",5/5
same,residue found in the meat of chickens,chickens; after feeding as feed additive,no residue
same,Minimum Inhibitory Concentration,E. coli HS,>500 µg/mL
same,inhibition of pathogenic bacteria (in words),Staph. Aureus ATCC 29213; Staphylococcus aureus,selectively inhibits
same,apparent permeability coefficient (Papp),[3],~10^−7 cm/s
same,effect on probiotic bacteria,Lactobacilli,did not affect
